For 22 molecules, TGI and GI50 results are on record in PubChem BioAssay (NCI).

Where “and” joins values, the source holds several entries; their conditions need not be identical. Identical values can stand only once.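 The compound was tested at five concentrations on cells cultured in 96-well plates, with a 48-hour exposure period. Abbreviation: GI50, concentration required for 50% inhibition of growth. TGI: total growth inhibition.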

Test systems include ACHN renal; CAKI-1 renal; MDA-MB-231 breast; NCI-H23 lung; DMS 114 small cell lung; HOP-18 NSCLC; KM20L2 colon; P388 leukemia; P388/ADR leukemia; SN12K1 renal; XF 498 CNS.
Holding throughout (assay): NCI tumour cell line growth inhibition, 48 h

Turning to `CCSc1nc(N)c2c(-c3ccc(OC)c(OC)c3)c3c(nc2n1)CCCC3`, the TGI in the test on ACHN renal, in the test with CAKI-1 renal, with MDA-MB-231 breast and with NCI-H23 lung was more than 100 µM throughout.

Consider `CCC(=O)Nc1ccc(N=Cc2cccc(Oc3ccccc3)c2)cc1`, for which the TGI with ACHN renal, in the test with CAKI-1 renal and with NCI-H23 lung was more than 100 µM in each case.

For `O=C1/C(=C/c2cccnc2)C(n2cccc2)c2c(Br)sc(Br)c21` (stereo unspecified), the TGI was 7.69 µM in the test on ACHN renal, 7.51 µM in the test on CAKI-1 renal, 3.3 µM with MDA-MB-231 breast and 9.18 µM in the test with NCI-H23 lung.

As to `CC1C(=O)OC2CC[N+]3(CC(=O)c4ccc(Br)cc4)CC=C(COC(=O)C(C)(O)C1(C)O)C23` (stereo unspecified), the TGI was more than 375 µM with CAKI-1 renal; more than 375 µM with DMS 114 small cell lung; more than 375 µM in the test on HOP-18 NSCLC; more than 266 µM in the test on KM20L2 colon; more than 375 µM in the test on NCI-H23 lung; more than 174 µM with P388 leukemia. Moreover, the TGI in the test on P388/ADR leukemia, in the test on SN12K1 renal and with XF 498 CNS was more than 375 µM each time.

Take `N#C[S-].[Nd+3].c1cnc2c(c1)ccc1cccnc12.c1cnc2c(c1)ccc1cccnc12.c1cnc2c(c1)ccc1cccnc12`: the TGI in the test on ACHN renal is 13 µM; with CAKI-1 renal it was 15.1 µM; in the test on DMS 114 small cell lung it was 4.67 µM; in the test on HOP-18 NSCLC, 7.53 µM; in the test on KM20L2 colon it was 15.3 µM; in the test with NCI-H23 lung, 23.3 µM. For the same molecule, in the test on XF 498 CNS, the TGI turned out to be 9.61 µM. In addition, the GI50 with DMS 114 small cell lung was 1.59 µM; with HOP-18 NSCLC, 0.787 µM; with KM20L2 colon it was 1.11 µM; in the test on XF 498 CNS, 4 µM.

Take `Cc1cc(NC(=S)Nc2ccccc2)c(NC(=S)Nc2ccccc2)cc1C`: the TGI is more than 89.6 µM in the test on CAKI-1 renal; more than 100 µM in the test with HOP-18 NSCLC; more than 92 µM in the test on KM20L2 colon; more than 95.1 µM in the test on NCI-H23 lung; 13.5 µM in the test with P388 leukemia; 19.1 µM in the test with P388/ADR leukemia. Further, the figures for the TGI with SN12K1 renal and in the test with XF 498 CNS were more than 59.1 µM and 84 µM, respectively.

In the case of `CC1=C(C)C(=O)O[C@@H]([C@](C)(O)[C@]2(O)CC[C@@]3(O)[C@@H]4C[C@H]5O[C@]56[C@@H](O)C=CC(=O)[C@]6(C)[C@H]4CC[C@]23C)C1`, the TGI was 0.588 µM and 0.567 µM in the test with DMS 114 small cell lung; 2.44 µM in the test on HOP-18 NSCLC; 4 µM and 1.35 µM with KM20L2 colon; 4.63 µM and 1.29 µM in the test with NCI-H23 lung; 98.8 µM and 250 µM in the test with P388/ADR leukemia; 6.39 µM and 21.6 µM in the test on SN12K1 renal. In addition, the TGI in the test on XF 498 CNS is 0.819 µM and 0.8 µM. Also, the GI50 with KM20L2 colon was 0.335 µM and 0.125 µM; with NCI-H23 lung, 0.38 µM and 0.205 µM; with P388 leukemia it was 0.17 µM and 0.0616 µM; with P388/ADR leukemia, 2.5 µM and 0.487 µM; in the test on SN12K1 renal, 1.4 µM and 5.89 µM; with XF 498 CNS, 0.082 µM.

As to `COc1cc2c(cc1OCCCOc1cc(-c3ccc(F)cc3)nc(C)n1)N=C[C@@H]1CCCN1C2=O`, the TGI in the test with ACHN renal turned out to be 30.4 µM; with CAKI-1 renal it was 31.9 µM; in the test on MDA-MB-231 breast it was 30 µM; in the test with NCI-H23 lung, 29.4 µM.

Consider `Nc1ccccc1CCCC(=O)O`, for which the TGI with ACHN renal, in the test with CAKI-1 renal, in the test on MDA-MB-231 breast and in the test with NCI-H23 lung was more than 100 µM in each case.

With `O=C(O)CNC(=O)CO/N=C1/C(c2c(O)[nH]c3ccccc23)=Nc2ccccc21`, the TGI in the test with ACHN renal, with CAKI-1 renal, in the test on MDA-MB-231 breast and in the test on NCI-H23 lung was more than 100 µM throughout.

On to `Cc1ccc(CC(=O)Nc2ccc(NC(=O)/C=C/NC(=O)/C=C/c3ccc(-c4ccccc4)cc3)cc2C(=O)c2ccccc2)cc1`, for which the TGI with ACHN renal turned out to be 10.9 µM; in the test on CAKI-1 renal, 11.3 µM; in the test with MDA-MB-231 breast, 5.65 µM; in the test on NCI-H23 lung it was 4.2 µM.

As for `COCc1nc2c(OC)cc(-c3nc4nc(N5CCN(C)CC5)ccc4[nH]3)c(OC)c2[nH]1`, the TGI in the test on ACHN renal, in the test on CAKI-1 renal, with MDA-MB-231 breast and with NCI-H23 lung was more than 100 µM throughout.

`Cn1c2ccccc2c2c(-c3ccccc3)[n+]3ccccc3nc21`: the TGI in the test on ACHN renal was more than 100 µM; in the test on CAKI-1 renal, more than 100 µM; in the test on MDA-MB-231 breast it was 97.5 µM; in the test with NCI-H23 lung, 54.1 µM.

For the molecule `COC(=O)CCC(=O)CC(=O)C1=NS(=O)(=O)c2nc(S(N)(=O)=O)c(Cl)cc2N1`, the TGI in the test with ACHN renal, with CAKI-1 renal, with DMS 114 small cell lung, with HOP-18 NSCLC, in the test on KM20L2 colon and with NCI-H23 lung was more than 100 µM throughout. In the test on XF 498 CNS, this molecule displayed a TGI of more than 100 µM.

Regarding `O=c1[nH]c(Nc2ccc(F)c(Cl)c2)nc2nc[nH]c12`, the TGI in the test with ACHN renal, in the test with CAKI-1 renal, in the test on MDA-MB-231 breast and in the test on NCI-H23 lung was more than 100 µM throughout.

For the molecule `CN(C)c1ccc(/C=C2/SC(=S)NC2=O)cc1`, the TGI with ACHN renal, in the test with CAKI-1 renal, in the test with MDA-MB-231 breast and in the test with NCI-H23 lung was more than 100 µM throughout.

With `C[n+]1c2ccccc2c(CNc2ccc(S(=O)(=O)N=C(N)N)cc2)c2ccccc21`, the TGI is more than 100 µM with ACHN renal; 19.9 µM in the test with CAKI-1 renal; 20.8 µM in the test with DMS 114 small cell lung; 59.6 µM in the test with KM20L2 colon; 33.3 µM in the test on NCI-H23 lung.

With `CC(C)(C)NCc1cc(Nc2ccnc3cc(Cl)ccc23)cc(-c2ccc(Cl)cc2)c1O`, the TGI in the test on ACHN renal was determined as 15 µM; in the test with CAKI-1 renal, 10.6 µM; with MDA-MB-231 breast, 11.7 µM; in the test on NCI-H23 lung it was 14 µM.

Regarding `COCO[C@@H]1C[C@H]2C(O)Nc3ccccc3C(=O)N2C1` (stereo partly specified), the TGI in the test with ACHN renal, in the test on CAKI-1 renal, with MDA-MB-231 breast and in the test with NCI-H23 lung was more than 100 µM throughout.

On to `CCc1n[nH]c(=S)n1/N=C\c1ccc(-c2ccccc2Cl)o1`, for which the TGI was more than 100 µM in the test with ACHN renal, more than 100 µM with CAKI-1 renal, more than 100 µM with MDA-MB-231 breast and 82 µM with NCI-H23 lung.

As to `CC(C)=CC1C(COC(=O)c2cc3c(cc2Cl)OCO3)C1(C)C` (stereo unspecified), the TGI was more than 100 µM in the test on ACHN renal, 69.7 µM in the test with CAKI-1 renal, more than 100 µM in the test with MDA-MB-231 breast and more than 100 µM in the test with NCI-H23 lung.

Regarding `CC1=NN(c2cccc(Cl)c2)C2(SCC(=O)N2c2nc3ccccc3s2)/C1=C\c1ccc(Cl)cc1` (stereo unspecified), the TGI in the test on ACHN renal was 46.4 µM; with CAKI-1 renal it was 39.2 µM; in the test with MDA-MB-231 breast it was 72 µM; with NCI-H23 lung it was 41.5 µM.
